Test results reported in patent US10351500B2, “Method of using of dihydro-resveratrol or its stilbenoid derivatives and/or chemical variants as antimicrobial agents” (Hong Kong Baptist University, priority 2015, dated 2019).
Where two headings read alike, the source gives them in different places.

Legend:
Streptococcus mutans = assay: anti-bacterial growth inhibition, S. mutans; format: cell-based; details: Streptococcus mutans; for inhibition at 25 µM: read-out: Inhibition rate (25 μM); for inhibition at 50 µM: read-out: Inhibition rate (50 μM); for inhibition at 100 µM: read-out: Inhibition rate (100 μM)
Protocol: (§1) Evaluation of anti-bacterial activity. In a single well of the 96-well microplate, 10 μL of the testing compound is added into 190 μL of growth medium growth medium (BBL™ Brain Heart Infusion) containing an overnight culture of Streptococcus mutans or Streptococcus sobrinus at a density of approximately 5×10^5 CFU. The testing compounds include dihydro-resveratrol and DR1 to DR11. Wells incubated with 10 μL 0.5% DMSO only (i.e. no testing compound) are served as the experimental control of bacterial growth whilst those incubated with growth medium only (i.e. no bacteria) are served as the negative control. […] The percentage of growth inhibition of S. mutans by the different concentrations of testing compounds is shown in Table 12 whereas the percentage of growth inhibition of S. sobrinus is shown in Table 13. The images of S. mutans culture are captured post treatment of dihydro-resveratrol (100 μM) and DR8 (100 μM) when compared to the growth of experimental control and negative control (FIG. 31).

[1] = ABTS radical decolorization assay (antioxidant capacity); format: biochemical; details: 15 min, 734 nm
Trichophyton rubrum = assay: anti-fungal growth inhibition, T. rubrum; format: cell-based; details: Trichophyton rubrum, 168 h; for inhibition at 25 µM: read-out: Inhibition rate (25 μM); for inhibition at 50 µM: read-out: Inhibition rate (50 μM); for inhibition at 100 µM: read-out: Inhibition rate (100 μM)
Protocol: (§2) Evaluation of anti-fungal activity. In a single well of the 96-well microplate, 10 μL of the testing compound is added into 190 μL of growth medium (Difco™ YM) containing an overnight culture of Trichophyton rubrum or Trichophyton mentagrophytes at a density of approximately 5×10^5 CFU. The testing compounds include dihydro-resveratrol and DR1 to DR11. Wells incubated with 10 μL 0.5% DMSO only (i.e. no testing compound) are served as the experimental control of fungal growth whilst those incubated with growth medium only (i.e. no fungi) are served as the negative control. […] The percentage of growth inhibition of T. mentagrophytes by the different concentrations of testing compounds is shown in Table 10 whilst the percentage of growth inhibition of T. rubrum is shown in Table 11. The images of T. mentagrophytes culture are captured post treatment of dihydro-resveratrol (100 μM) and DR8 (100 μM) when compared to the growth of experimental control and negative control (FIG. 30).

[2] = test system: Trichophyton mentagrophytes; assay: anti-fungal growth inhibition, T. mentagrophytes; format: cell-based; details: Trichophyton mentagrophytes, 168 h; for inhibition at 25 µM: read-out: Inhibition rate (25 μM); for inhibition at 50 µM: read-out: Inhibition rate (50 μM); for inhibition at 100 µM: read-out: Inhibition rate (100 μM)
Protocol: as §2

Streptococcus sobrinus = assay: anti-bacterial growth inhibition, S. sobrinus; format: cell-based; details: Streptococcus sobrinus; for inhibition at 25 µM: read-out: Inhibition rate (25 μM); for inhibition at 50 µM: read-out: Inhibition rate (50 μM); for inhibition at 100 µM: read-out: Inhibition rate (100 μM)
Protocol: as §1

[3] = test system: skin color at the arms of individual human subjects; assay: skin colorimeter ITA° measurement after topical stilbenoid solution; format: in vivo
Protocol: To determine the skin color of the individual human subjects, the initial skin conditions at the arms of the individuals are tested by the skin colorimeter MPA 5 on day 0. The individual typology angle (ITA°) is calculated by the colorimeter based on the luminance (L*) and yellow-blue component (b*) values. The greater the ITA° value, the greater the skin whiteness [S. Del Bino and F. Bernerd. Variations in skin colour and the biological consequences of ultraviolet radiation exposure. British Journal of Dermatology 2013; 169 (Suppl. 3), 33-40]. In fact, skin colors are classified into 6 major divisions: very light, light, intermediate, tan, brown and dark as listed in Table 4. Two areas (2 cm×2 cm each) are selected as treated areas whereas regions surrounding the treated areas on the arms are regarded as control areas. A volume of 200 μL of the testing stilbenoids (2% by weight dissolved in ethanol) is applied to the designated area twice a day, day and night. At the end of the first week (day 7), individuals are tested with the skin colorimeter for recording the data about using the stilbenoids for 7 days. Again, at the end of the second week (day 14), individuals are tested with the skin colorimeter for recording the data about using the stilbenoids for 14 days.

pancreatic acinar cells = format: cell-based; details: rat, 24 h
Protocol: Functional intact acini were dissociated from pancreatic tissue using collagenase digestion with mild shearing forces. Acini were cultured in Dulbecco's modification of Eagle's medium (GIBCO) supplemented with 5% fetal bovine serum (GIBCO), 1% penicillin-streptomycin (GIBCO) in a 5% CO2, 95% air humidified atmosphere at 37° C. […] MTT reagent was added to the cells at the end of the 24-hour treatment period. After a 3-hour reaction time, MTT products were dissolved in DMSO and absorbance at 570 nm was taken.

[4] = S. mutans, 25 μM, 10 hours, 30° C., OD 600 nm
[5] = S. mutans, 50 μM, 10 hours, 30° C., OD 600 nm
[6] = S. mutans, 100 μM, 10 hours, 30° C., OD 600 nm
[7] = T. rubrum, 25 μM, one week, 30° C., OD 510 nm
[8] = T. rubrum, 50 μM, one week, 30° C., OD 510 nm
[9] = T. rubrum, 100 μM, one week, 30° C., OD 510 nm
[10] = T. mentagraphytes, 25 μM, one week, 30° C., OD 510 nm
[11] = T. mentagraphytes, 50 μM, one week, 30° C., OD 510 nm
[12] = T. mentagraphytes, 100 μM, one week, 30° C., OD 510 nm
[13] = S. sobrinus, 25 μM, 10 hours, 30° C., OD 600 nm
[14] = S. sobrinus, 50 μM, 10 hours, 30° C., OD 600 nm
[15] = S. sobrinus, 100 μM, 10 hours, 30° C., OD 600 nm

O=C(Cc1ccccc1)Oc1ccc(CCc2cc(OC(=O)Cc3ccccc3)cc(OC(=O)Cc3ccccc3)c2)cc1 [DR10]
inhibition at 25 µM (Streptococcus mutans; 10 h): 3.42% | inhibition at 50 µM (Streptococcus mutans; 10 h): 3.56% | inhibition at 100 µM (Streptococcus mutans; 10 h): 2.44% | Trolox equivalent (mg), antioxidant capacity [1]: 0 mg | inhibition at 25 µM (Trichophyton rubrum): 8.53% | inhibition at 50 µM (Trichophyton rubrum): 6.36% | inhibition at 100 µM (Trichophyton rubrum): 10.7% | inhibition at 25 µM [2]: 3.14% | inhibition at 50 µM [2]: 12.6% | inhibition at 100 µM [2]: 20.9% | inhibition at 25 µM (Streptococcus sobrinus; 10 h): 13.8% | inhibition at 50 µM (Streptococcus sobrinus; 10 h): 11.3% | inhibition at 100 µM (Streptococcus sobrinus; 10 h): 15.8%

CC(C)(C)C(=O)Oc1ccc(CCc2cc(OC(=O)C(C)(C)C)cc(OC(=O)C(C)(C)C)c2)cc1 [DR11]
inhibition at 25 µM (Streptococcus mutans; [4]): 5.49% | inhibition at 50 µM (Streptococcus mutans; [5]): 6.86% | inhibition at 100 µM (Streptococcus mutans; [6]): 4.13% | Trolox equivalent (mg), antioxidant capacity [1]: 0 mg | inhibition at 25 µM (Trichophyton rubrum; [7]): 8.1% | inhibition at 50 µM (Trichophyton rubrum; [8]): 7.58% | inhibition at 100 µM (Trichophyton rubrum; [9]): 9.54% | inhibition at 25 µM [2, 10]: 13.1% | inhibition at 50 µM [2, 11]: 13.4% | inhibition at 100 µM [2, 12]: 9.36% | inhibition at 25 µM (Streptococcus sobrinus; [13]): 10.5% | inhibition at 50 µM (Streptococcus sobrinus; [14]): 12.6% | inhibition at 100 µM (Streptococcus sobrinus; [15]): 0.18%

Oc1ccc(/C=C/c2cc(O)cc(O)c2)cc1 [Trans-resveratrol, trans-resveratrol, reference compound]
inhibition at 25 µM (Streptococcus mutans; [4]): 8.91% | inhibition at 50 µM (Streptococcus mutans; [5]): 5.77% | inhibition at 100 µM (Streptococcus mutans; [6]): 3.83% | whitening effect on skin ([3]; 2% by weight in ethanol, topical twice a day, most individuals): Overt whitening effect | ITA° measurement ([3]; Individual No. 1, day 7, 2% solution topical): 47.7 ± 1.155 ° | ITA° measurement ([3]; Individual No. 1, day 14, 2% solution topical): 46.4 ± 0.548 ° | ITA° measurement ([3]; Individual No. 2, day 7, 2% solution topical): 39.2 ± 2.564 ° | ITA° measurement ([3]; Individual No. 2, day 14, 2% solution topical): 44.8 ± 2.871 ° | ITA° measurement ([3]; Individual No. 3, day 7, 2% solution topical): 38.0 ± 1.732 ° | ITA° measurement ([3]; Individual No. 3, day 14, 2% solution topical): 36.2 ± 1.789 ° | ITA° measurement ([3]; Individual No. 4, day 7, 2% solution topical): 22.4 ± 1.715 ° | ITA° measurement ([3]; Individual No. 4, day 14, 2% solution topical): 29.4 ± 1.342 ° | ITA° measurement ([3]; Individual No. 5, day 7, 2% solution topical): 26.6 ± 1.159 ° | ITA° measurement ([3]; Individual No. 5, day 14, 2% solution topical): 34.0 ± 2.168 ° | ITA° measurement ([3]; Individual No. 6, day 7, 2% solution topical): 28.2 ± 2.718 ° | ITA° measurement ([3]; Individual No. 6, day 14, 2% solution topical): 41.8 ± 3.372 ° | ITA° measurement ([3]; Individual No. 7, day 7, 2% solution topical): 20.6 ± 1.140 ° | ITA° measurement ([3]; Individual No. 7, day 14, 2% solution topical): 20.4 ± 0.578 ° | ITA° measurement ([3]; Individual No. 8, day 7, 2% solution topical): 14.0 ± 1.232 ° | ITA° measurement ([3]; Individual No. 8, day 14, 2% solution topical): 9.6 ± 1.342 ° | ITA° measurement ([3]; Individual No. 9, day 7, 2% solution topical): −7.2 ± 1.789 ° | ITA° measurement ([3]; Individual No. 9, day 14, 2% solution topical): −7.4 ± 1.140 ° | inhibition at 25 µM (Trichophyton rubrum; [7]): 6.56% | inhibition at 50 µM (Trichophyton rubrum; [8]): 11.6% | inhibition at 100 µM (Trichophyton rubrum; [9]): 21.6% | inhibition at 25 µM [2, 10]: 5.35% | inhibition at 50 µM [2, 11]: 13.9% | inhibition at 100 µM [2, 12]: 32.4% | inhibition at 25 µM (Streptococcus sobrinus; [13]): 6.71% | inhibition at 50 µM (Streptococcus sobrinus; [14]): 1.17% | inhibition at 100 µM (Streptococcus sobrinus; [15]): 2.46% | cytotoxicity (MTT, mitochondrial metabolic rates) (pancreatic acinar cells): roughly 250 μM
